Molecules are shown by their SMILES.

This passage reports Collagenase results from publication PMC7402176, “Highlighting the Biological Potential of the Brown Seaweed Fucus spiralis for Skin Applications” (Antioxidants, 2020).

The experiment addresses T1, collagenase.
T1 construct: gene colG; commercial kit enzyme (EnzChek Gelatinase/Collagenase Assay Kit); native bacterial preparation, usually a mixture of collagenases
The experiment is described as follows: fluorescence assay, fluorescein-conjugate gelatin cleavage. It is filed as biochemical. Particulars: positive control; EnzChek kit. An excerpt:
fluorescence assay, fluorescein-conjugate gelatin cleavage on collagenase

For the molecule `O=C(O[C@@H]1Cc2c(O)cc(O)cc2O[C@@H]1c1cc(O)c(O)c(O)c1)c1cc(O)c(O)c(O)c1` [(−)-Epigallocatechin gallate], the Collagenase was 4.8 (4.1–5.5) µg/mL.
